Test results from patent US11969470B2, “Topiramate compositions and methods of making and using the same” (Regents of the University of Minnesota, priority 2006, dated 2024).

What was measured:
[1] = cited from earlier work
[2] = administered parenterally, orally and via inhalation; compared with β-cyclodextrin; cited from earlier work
[3] = Open labeled single dose intravenous [13C]6-TPM/CAPTISOL study in adult patients on maintenance oral topiramate (pharmacokinetics and safety); format: in vivo, human; details: for BP changes / EKG changes / Injection site irritation / Other adverse events / Pulse changes / Bioavailability (fraction of oral dose absorbed, AUCoral vs AUCiso) / Clearance / Distribution volume / Half life: IV dose 25 mg
Protocol: This was an open labeled, single dose study in adult patients on a maintenance dose of topiramate for treatment of either migraines or epilepsy.
Patients were instructed to take their evening topiramate dose the day before the study, then fast until after administration of study drug. On the day of the study, subjects were admitted to University of Minnesota General Clinical Research Center where a neurologist performed a brief physical and neurological exam, vital signs were recorded, an ECG strip was obtained, indwelling catheters were placed in the left and right forearms, and blood samples were drawn for baseline laboratory tests.
A baseline assessment of topiramate toxicity was performed using the following criteria: ataxia and nystagmus: 0=none, 1=mild, 2=severe. As used herein, “ataxia” is classified as “mild”—for unsteady with tandem gait testing, but able to perform without assistance, or as “severe”—unable to perform tandem gait testing without assistance
The [^13C]6-TPM was administered into the right arm catheter, while blood samples for laboratory tests were drawn from the left arm. Laboratory chemistries included albumin, blood chemistries, kidney and liver function test, and genotyping for drug disposition. A 25 mg [^13C]6-TPM dose was then infused over 10-20 minutes. The exact dose administered was determined gravimetrically from the pre- and post-dose syringe weights. At the end of the infusion, patients took their prescribed oral morning dose; thereafter they resumed their regular dosing regimen. Blood samples for pharmacokinetic analysis were taken at 0, 5 minutes, 15 minutes, 30 minutes, 1 hour, 2 hours, 4 hours, 6 hours, 10 hours, 24 hours, 48 hours, 72 hours and 96 hours after intravenous administration of the topiramate. Urine was collected from 0-24 hours for analysis of the parent drug to determine renal clearance. Urine volumes were measured and 15 mL aliquots were stored at −80° C. until analysis.
Topiramate was detected using a LC/MS method employing the electrospray ionization (ESI) and negative scan mode. This method is designed to measure both unlabeled topiramate and the stable-isotope topiramate using a negative ESI and SIM mode of liquid chromatograph mass spectrometer. The analytes were separated using ZORBAX® LC8/LC18 and a mobile phase consisting of ammonium acetate buffer and methanol. The data generated using CHEMSTATION® software (Agilent) and quantified using deuterated topiramate (“TPM-d12”, internal standard). Patient samples were run along with a 7-concentration standard curve (run in triplicate) and nine quality control samples (low, med and high also run in triplicates), analyzed in human plasma using liquid extraction with methyl-tert-butylether and negative ion electrospray mass spectrometry. The quantitative analysis was performed using selective ion monitoring mode for topiramate at m/z=338 and m/z=350 for TPM-d12 in the negative mode. The unlabeled topiramate calibration curve ranged from 0.05 μg/mL to 10 μg/mL.
Both stable-isotope topiramate and non-labeled topiramate concentration-time data was analyzed by non-compartmental methods to obtain AUC, clearance, half-life, and volume of distribution data. The AUC was determined by the trapezoidal rule and the terminal half-life was determined by linear regression of the terminal phase on log concentration vs. time plots. WINNONLIN® (Tripos L.L.P.), a pharmacokinetic data analysis package was used to fit the data to standard pharmacokinetic models (one and two-compartment models).
Elimination rate constant (kel): kel was determined by the best fit of the post-infusion isotope concentration-time data.
AUCiso=AUC0-96 hrs+Cp96 hrs/kel
Distribution Volume at Steady State (Vdss): Vdss was determined as follows: Vdss=Doseiso*AUMC/AUC where AUMC is the area under the first moment curve, and calculated by determining the area under the curve of a plot of the product of concentration and time versus time from zero time to infinity. […]

[4] = system: hypoxic-ischemic white matter injury; details: administration post-insult in vivo; cited from earlier work
[5] = cited from earlier work; remark: listed apart in the source
AMPA-kainate receptor = details: developing oligodendrocytes; similar to NBQX; cited from earlier work
[6] = Topiramate phase solubility study with the cyclodextrin CAPTISOL
Protocol: A phase solubility study was conducted with the cyclodextrin CAPTISOL® and topiramate to evaluate the extent of solubilization of the drug by the derivatized cyclodextrin.
Solutions containing increasing amounts of dissolved CAPTISOL® brand of sulfobutylether-β-cyclodextrin were prepared and added to small glass vials. Excess solid topiramate was added to each vial and the vials were capped, vortexed and placed in constant agitation for five days at room temperature (about 23° C. to about 25° C.).
After the multi-day equilibration period, the vials were centrifuged (twice at 693×g, 25° C.) and aliquots were taken from the clear supernatant solutions. The aliquots were diluted 1:3 (1:5.67 for 40% cyclodextrin CAPTISOL® solutions) with mobile phase and analyzed by HPLC for topiramate content.
• HPLC: Dionex • Detection: Refractive Index Detector • Column: SB-Phenyl (5 μm) 250 mm×4.6 mm • Column Temperature: 35° C. • Mobile Phase: 40:60 (MeOH:Water) • Flow Rate: 1.0 mL/min isocratic • Run Time: 30 minutes • Sample Solvent: Mobile phase • Injection Volume: 50 μL • Retention Time: ˜12.5 minutes Mobile Phase Preparation

[7] = adult patients, summary of three subjects
[8] = subject TUMN1, oral dose 50 mg b.i.d.
[9] = subject TUMN2, oral dose 100 mg q.d.
[10] = subject TUMN3, oral dose 25 mg b.i.d.

sulfobutylether-β-cyclodextrin [CAPTISOL®]
water solubility [1]: > 90 g per 100 mL | nephrotoxicity [2]: does not exhibit the nephrotoxicity associated with β-cyclodextrin

CC1(C)O[C@@H]2[C@@H](CO[C@@]3(COS(N)(=O)=O)OC(C)(C)O[C@@H]23)O1 [Topiramate, 2,3:4,5-di-O-isopropylidene-β-D-fructopyranose sulfamate]
distribution volume for intravenously administered topiramate [3, 7]: approximately 0.7 L/kg | oral absorption [3, 7]: approximately 100% | BP changes ([3]; subject TUMN1): None | EKG changes ([3]; subject TUMN1): None | Injection site irritation ([3]; subject TUMN1): None | Other adverse events ([3]; subject TUMN1): None | Pulse changes ([3]; subject TUMN1): None | Bioavailability (fraction of oral dose absorbed, AUCoral vs AUCiso) [3, 8]: 102% | Clearance [3, 8]: 1.01 L/h | Distribution volume [3, 8]: 0.78 L/kg | Half life [3, 8]: 30.5 h | BP changes ([3]; subject TUMN2): None | EKG changes ([3]; subject TUMN2): None | Injection site irritation ([3]; subject TUMN2): None | Other adverse events ([3]; subject TUMN2): None | Pulse changes ([3]; subject TUMN2): None | Bioavailability (fraction of oral dose absorbed, AUCoral vs AUCiso) [3, 9]: 106% | Clearance [3, 9]: 1.07 L/h | Distribution volume [3, 9]: 0.68 L/kg | Half life [3, 9]: 28.4 h | BP changes ([3]; subject TUMN3): None | EKG changes ([3]; subject TUMN3): None | Injection site irritation ([3]; subject TUMN3): None | Pulse changes ([3]; subject TUMN3): None | Other adverse events ([3]; subject TUMN3, cell wraps: Vasovagal response during IV line placement): Vasovagal | Bioavailability (fraction of oral dose absorbed, AUCoral vs AUCiso) [3, 10]: 109% | Clearance [3, 10]: 1.11 L/h | Distribution volume [3, 10]: 0.70 L/kg | Half life [3, 10]: 38.0 h | effect on selective hypoxic-ischemic white matter injury [4]: protective against selective hypoxic-ischemic white matter injury | bioavailability of an oral topiramate dose ([5]; oral administration, previously found): about 80% | oral dose excreted in the urine as unchanged drug ([5]; oral administration): about 70% | higher clearance in pediatric patients compared to adults ([5]; pediatric patients vs adults): 50% | effect on AMPA-kainate receptor-mediated cell death and calcium influx, kainate-evoked currents (AMPA-kainate receptor): attenuates | intrinsic solubility ([6]; in water in the absence of cyclodextrin, room temperature): 7.86 mg/mL | phase solubility type ([6]; topiramate in CAPTISOL solutions in water): Type A-linear
